Results taken from US20240336565A1, “SOLID FORMS OF OSANETANT” (Acer Therapeutics, Inc., priority 2021, published 2024).
Values belong to the molecule of their own block, whether it stands above or below them.

What was measured:
[1] = Thermodynamic solubility in water and pH buffers; conditions: 24 h Solubility at 37° C.
[2] = Comparative studies: 7-day stability; format: physicochemical; conditions: 7 Day Stability
Experimental: Osanetant p-toluenesulfonic acid Form 1, osanetant benzene sulfonic acid Form 3, osanetant naphthalene-2-sulfonic acid Form 3, and osanetant phosphoric acid Form 7 were compared. Osanetant phosphoric acid Form 7 was obtained when preparation of osanetant phosphoric acid Form 4 was repeated and found to be not reproducible, and Form 7 was determined to be a mixture of hydrates).
Thus, osanetant benzene sulfonic acid salt Form 1 and osanetant p-toluene sulfonic acid salt Form 1 were identified as advantageous salts.

[3] = Disproportionation study (stirring in water, XRPD, pH of liquor); format: physicochemical; conditions: slurry in water at 25° C., 24 h
Experimental: After 24 h total, a white slurry was observed and was isolated by centrifugation. The solids were analyzed by XRPD. The pH of the filtered liquor was measured at 5.63. […] After 24 h total, a white slurry was observed and was isolated by centrifugation. The solids were analyzed by XRPD. The pH of the filtered liquor was measured (pH=5.09).

[4] = Long term stability: acid stability (2M HCl) at 60° C.; format: physicochemical; conditions: for Control Purity: 2M HCl 60° C. study; for T = 1 day Purity / T = 2 day Purity / T = 4 day Purity: 2M HCl, 60° C., dark; for T = 2 day Purity: 2 days; for T = 4 day Purity: 4 days
Experimental: (§1) Osanetant p-toluenesulfonic acid Form 1 and osanetant benzenesulfonic acid Form 1 were tested for long-term stability across a number of different conditions, as detailed below.
Acid Stability at 60° C.—Osanetant p-toluenesulfonic acid Form 1 and osanetant benzenesulfonic acid Form 1 were prepared at an osanetant content 10 times the normal working concentration then added to HPLC vials containing 2M HCl and stored in a darkened oven at 60° C. Samples were diluted to 2 mg/mL for analysis and were taken after T=1, 2, and 4 days storage.

[5] = Long term stability: oxidation (6% H2O2) at ambient temperature; format: physicochemical; conditions: for T = 1 month Purity / T = 1 day Purity / T = 2 day Purity / T = 4 day Purity / T = 7 day Purity / T = 14 day Purity: 6% H2O2, ambient, dark; for T = 2 day Purity: 2 days; for T = 4 day Purity: 4 days; for T = 7 day Purity: 7 days; for T = 14 day Purity: 14 days; for Control Purity: 6% H2O2 ambient study
Experimental: as §1
(§2) Oxidation at Ambient Temperature-Osanetant p-toluenesulfonic acid Form 1 and osanetant benzenesulfonic acid Form 1 were prepared at an osanetant content 10 times the normal working concentration then added to HPLC vials containing 6% H2O2 and stored in the dark at ambient laboratory conditions. Samples were diluted to 2 mg/mL for analysis and were taken after T=1, 2, 4, 7, and 14 days storage. […] The purity of the resulting material is described in Table 46: […]

[6] = Long term stability: base (2M NaOH) at 60° C.; format: physicochemical; conditions: for Control Purity: 2M NaOH 60° C. study; for T = 4 day Purity: 4 days; for T = 7 day Purity: 7 days; for T = 14 day Purity: 14 days
Experimental: as §1
as §2, with “Base” for “Oxidation”, “60° C.—Osanetant” for “Ambient Temperature-Osanetant”, “2M NaOH” for “6% H2O2”, “a darkened oven” for “the dark”, “60° C.” for “ambient laboratory conditions.”, “45:” for “46:”

[7] = Long term stability: thermal stability of solids at 60° C.; format: physicochemical; conditions: for T = 1 month Purity / T = 1 day Purity / T = 2 day Purity / T = 4 day Purity / T = 7 day Purity / T = 14 day Purity: solid at 60° C., dark; for T = 2 day Purity: 2 days; for T = 4 day Purity: 4 days; for T = 7 day Purity: 7 days; for T = 14 day Purity: 14 days; for Control Purity: solid, Purity = 100-total other substances
Experimental: as §1
Thermal stability of solids at 60° C.—Osanetant p-toluenesulfonic acid Form 1 and osanetant benzenesulfonic acid Form 1 were stored in a darkened oven at 60° C. in glass vials. Samples were taken after T=1, 2, 4, 7, and 14 days storage. […] The purity of the resulting material is described in Table 41: […]

[8] = Long term stability: base (2M NaOH) at ambient temperature; format: physicochemical; conditions: for Control Purity: 2M NaOH ambient study; for T = 1 month Purity / T = 1 day Purity / T = 2 day Purity / T = 4 day Purity / T = 7 day Purity / T = 14 day Purity: 2M NaOH, ambient, dark; for T = 2 day Purity: 2 days; for T = 4 day Purity: 4 days; for T = 7 day Purity: 7 days; for T = 14 day Purity: 14 days
Experimental: as §1
as §2, with “Base” for “Oxidation”, “Temperature—Osanetant” for “Temperature-Osanetant”, “2M NaOH” for “6% H2O2”, “44:” for “46:”

[9] = Long term stability: oxidation (6% H2O2) at 60° C.; format: physicochemical; conditions: for Control Purity: 6% H2O2 60° C. study; for T = 1 month Purity / T = 1 day Purity / T = 2 day Purity / T = 4 day Purity / T = 7 day Purity / T = 14 day Purity: 6% H2O2, 60° C., dark; for T = 2 day Purity: 2 days; for T = 4 day Purity: 4 days; for T = 7 day Purity: 7 days; for T = 14 day Purity: 14 days
Experimental: as §1
as §2, with “60° C.—Osanetant” for “Ambient Temperature-Osanetant”, “a darkened oven” for “the dark”, “60° C.” for “ambient laboratory conditions.”, “47:” for “46:”

[10] = Long term stability: acid stability (2M HCl) at ambient temperature; format: physicochemical; conditions: for Control Purity: 2M HCl ambient study; for T = 1 month Purity / T = 1 day Purity / T = 2 day Purity / T = 4 day Purity / T = 7 day Purity / T = 14 day Purity: 2M HCl, ambient, dark; for T = 2 day Purity: 2 days; for T = 4 day Purity: 4 days; for T = 7 day Purity: 7 days; for T = 14 day Purity: 14 days
Experimental: as §1
as §2, with “Acid Stability” for “Oxidation”, “2M HCl” for “6% H2O2”, “42:” for “46:”

[11] = Solid form stability observations (scale up / polymorph work: drying, ambient conditions, aqueous media); format: physicochemical
Experimental: Two anhydrous forms of the osanetant p-toluenesulfonic acid were synthesized. […] Form 6, described below, was a stable anhydrous form, but hydrated in water and aqueous solvent mixtures.
Advantageously, Form 1 (hydrate) and Form 6 (anhydrous) were stable on drying. Form 1 re-hydrated at room temperature and pressure after KF analysis, when it was heated in an oven to remove the water.
The experiment was cooled to 5° C. at a rate of 0.1° C./min and stirred at 5° C. for 18 h. The slurry was isolated be Buchner filtration: 42.5 mm Ø grade 1 Whatman filter paper; fast Filtration (<30 s); the cake was washed with 1 mL of ethyl acetate; the isolated solids were dried at 40° C. under vacuum for 72 h. […]

SMILES: CC(=O)N(C)C1(c2ccccc2)CCN(CCC[C@]2(c3ccc(Cl)c(Cl)c3)CCCN(C(=O)c3ccccc3)C2)CC1.O=S(=O)(O)c1ccccc1 [Besylate Form 3]
Concentration ([1]; pH 1.2): 216.3 µg/mL | Concentration ([1]; pH 4.5): 232.4 µg/mL | Concentration ([1]; pH 6.8): 363.7 µg/mL | HPLC Impurity Content ([2]; 40° C./75% RH): 0.06 % w/w | HPLC Impurity Content ([2]; 80° C.): 0.24 % w/w | HPLC Impurity Content ([2]; Ambient Light): 0.05 % w/w | Liquor pH [3]: 5.09

Control Purity [4]: 99.9 | T = 1 day Purity [4]: 94.7 | T = 2 day Purity [4]: 89.2 | T = 4 day Purity [4]: 81.0 | T = 1 month Purity [5]: 99.5 | T = 1 day Purity [5]: 99.9 | T = 2 day Purity [5]: 99.9 | T = 4 day Purity [5]: 99.9 | T = 7 day Purity [5]: 99.8 | T = 14 day Purity [5]: 99.8 | Control Purity [5]: 99.9 | Control Purity [6]: 99.9 | T = 1 month Purity ([6]; 2M NaOH, 60° C., dark): 95.8 | T = 1 day Purity ([6]; 2M NaOH, 60° C., dark): 99.7 | T = 4 day Purity ([6]; 2M NaOH, 60° C., dark): 98.5 | T = 7 day Purity ([6]; 2M NaOH, 60° C., dark): 97.3 | T = 14 day Purity ([6]; 2M NaOH, 60° C., dark): 95.5 | T = 1 month Purity [7]: 100.0 | T = 1 day Purity [7]: 99.9 | T = 2 day Purity [7]: 99.9 | T = 4 day Purity [7]: 99.9 | T = 7 day Purity [7]: 99.9 | T = 14 day Purity [7]: 100.0 | Control Purity [7]: 99.9 | Control Purity [8]: 99.9 | T = 1 month Purity [8]: 99.9 | T = 1 day Purity [8]: 99.9 | T = 2 day Purity [8]: 99.9 | T = 4 day Purity [8]: 99.9 | T = 7 day Purity [8]: 99.9 | T = 14 day Purity [8]: 100.0 | Control Purity [9]: 99.9 | T = 1 month Purity [9]: 77.8 | T = 1 day Purity [9]: 91.9 | T = 2 day Purity [9]: 97.2 | T = 4 day Purity [9]: 94.8 | T = 7 day Purity [9]: 93.1 | T = 14 day Purity [9]: 76.6 | Control Purity [10]: 99.9 | T = 1 month Purity [10]: 98.5 | T = 1 day Purity [10]: 100.0 | T = 2 day Purity [10]: 100.0 | T = 4 day Purity [10]: 99.9 | T = 7 day Purity [10]: 99.5 | T = 14 day Purity [10]: 99.3
SMILES: CC(=O)N(C)C1(c2ccccc2)CCN(CCCC2(c3ccc(Cl)c(Cl)c3)CCCN(C(=O)c3ccccc3)C2)CC1.O=S(=O)(O)c1ccccc1 (centres unmarked) [benzenesulfonic acid Form 1]

SMILES: CC(=O)N(C)C1(c2ccccc2)CCN(CCC[C@]2(c3ccc(Cl)c(Cl)c3)CCCN(C(=O)c3ccccc3)C2)CC1.Cc1ccc(S(=O)(=O)O)cc1 [osanetant p-toluenesulfonic acid Form 6, (R)-N-(1-(3-(1-benzoyl-3-(3,4-dichlorophenyl)piperidin-3-yl)propyl)-4-phenylpiperidin-4-yl)-N-methylacetamide p-toluenesulfonic acid]
hydration / form conversion in water and aqueous solvent mixtures [11]: hydrated | form stability / re-hydration under ambient conditions ([11]; ambient conditions / room temperature and pressure): stable | form on drying ([11]; drying (40° C. under vacuum where stated)): stable

SMILES: CC(=O)N(C)C1(c2ccccc2)CCN(CCC[C@]2(c3ccc(Cl)c(Cl)c3)CCCN(C(=O)c3ccccc3)C2)CC1.Cc1ccc(S(=O)(=O)O)cc1 [p-toluenesulfonic acid Form 1]
Control Purity [4]: 99.8 | T = 1 day Purity [4]: 94.8 | T = 2 day Purity [4]: 89.0 | T = 4 day Purity [4]: 80.5 | T = 1 month Purity [5]: 99.7 | T = 1 day Purity [5]: 99.8 | T = 2 day Purity [5]: 99.8 | T = 4 day Purity [5]: 99.8 | T = 7 day Purity [5]: 99.8 | T = 14 day Purity [5]: 99.8 | Control Purity [5]: 99.8 | Control Purity [6]: 99.8 | T = 1 month Purity ([6]; 2M NaOH, 60° C., dark): 94.0 | T = 1 day Purity ([6]; 2M NaOH, 60° C., dark): 99.6 | T = 2 day Purity ([6]; 2M NaOH, 60° C., dark, 2 days): 99.2 | T = 4 day Purity ([6]; 2M NaOH, 60° C., dark): 98.4 | T = 7 day Purity ([6]; 2M NaOH, 60° C., dark): 97.1 | T = 14 day Purity ([6]; 2M NaOH, 60° C., dark): 94.7 | T = 1 month Purity [7]: 99.5 | T = 1 day Purity [7]: 99.7 | T = 2 day Purity [7]: 99.7 | T = 4 day Purity [7]: 99.7 | T = 7 day Purity [7]: 99.6 | T = 14 day Purity [7]: 99.7 | Control Purity [7]: 99.8 | Control Purity [8]: 99.8 | T = 1 month Purity [8]: 99.7 | T = 1 day Purity [8]: 99.8 | T = 2 day Purity [8]: 99.8 | T = 4 day Purity [8]: 99.8 | T = 7 day Purity [8]: 99.8 | T = 14 day Purity [8]: 99.8 | Control Purity [9]: 99.8 | T = 1 month Purity [9]: 65.5 | T = 1 day Purity [9]: 99.3 | T = 2 day Purity [9]: 96.6 | T = 4 day Purity [9]: 97.4 | T = 7 day Purity [9]: 95.2 | T = 14 day Purity [9]: 92.4 | Control Purity [10]: 99.8 | T = 1 month Purity [10]: 98.0 | T = 1 day Purity [10]: 99.8 | T = 2 day Purity [10]: 99.8 | T = 4 day Purity [10]: 99.9 | T = 7 day Purity [10]: 99.6 | T = 14 day Purity [10]: 99.0
